Reference: PMC3747596 (PLoS ONE, 2013)
Where two headings read alike, the source gives them in different places.

Legend:
α1B = target: T1, α1B (Homo sapiens, UniProt P35368); test: Radioligand displacement, α1B; assay type: binding
T1 sequence (P35368 1-520): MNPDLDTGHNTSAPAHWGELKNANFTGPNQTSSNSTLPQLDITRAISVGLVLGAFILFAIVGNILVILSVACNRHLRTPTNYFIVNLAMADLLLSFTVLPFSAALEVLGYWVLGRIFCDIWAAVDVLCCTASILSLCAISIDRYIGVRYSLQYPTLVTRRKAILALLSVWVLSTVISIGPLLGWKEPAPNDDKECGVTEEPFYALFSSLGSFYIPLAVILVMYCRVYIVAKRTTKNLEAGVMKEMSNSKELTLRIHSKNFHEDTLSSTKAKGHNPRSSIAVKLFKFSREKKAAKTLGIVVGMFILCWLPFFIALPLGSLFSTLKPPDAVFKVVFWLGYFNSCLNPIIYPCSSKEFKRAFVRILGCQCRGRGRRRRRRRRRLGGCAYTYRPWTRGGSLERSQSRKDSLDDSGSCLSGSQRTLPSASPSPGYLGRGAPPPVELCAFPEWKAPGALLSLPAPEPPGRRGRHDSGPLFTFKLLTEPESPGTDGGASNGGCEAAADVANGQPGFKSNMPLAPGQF

5-HT2b = 5-HT2b (Homo sapiens, UniProt P41595); test: Radioligand displacement, 5-HT2b; assay type: binding
5-HT2b, sequence (P41595 whole entry): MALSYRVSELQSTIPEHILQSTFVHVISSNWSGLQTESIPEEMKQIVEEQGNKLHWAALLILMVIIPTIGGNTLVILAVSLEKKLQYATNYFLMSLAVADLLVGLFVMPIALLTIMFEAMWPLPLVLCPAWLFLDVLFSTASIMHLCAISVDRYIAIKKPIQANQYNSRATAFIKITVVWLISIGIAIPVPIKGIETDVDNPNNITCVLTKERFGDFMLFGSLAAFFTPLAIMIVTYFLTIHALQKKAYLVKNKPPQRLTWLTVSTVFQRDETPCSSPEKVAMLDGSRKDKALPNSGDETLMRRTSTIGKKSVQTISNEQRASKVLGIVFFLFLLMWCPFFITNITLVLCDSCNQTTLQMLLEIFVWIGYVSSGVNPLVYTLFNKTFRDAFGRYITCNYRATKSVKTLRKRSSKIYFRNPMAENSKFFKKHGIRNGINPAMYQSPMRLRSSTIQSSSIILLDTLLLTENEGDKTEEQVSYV

human NOP = target: T2, human NOP (Homo sapiens, UniProt P41146); test: NOP binding against [3H]N/OFQ, HEK293T membranes
T2 construct: expressed in transfected cells; host or cells: HEK293T
T2 sequence (P41146 whole entry): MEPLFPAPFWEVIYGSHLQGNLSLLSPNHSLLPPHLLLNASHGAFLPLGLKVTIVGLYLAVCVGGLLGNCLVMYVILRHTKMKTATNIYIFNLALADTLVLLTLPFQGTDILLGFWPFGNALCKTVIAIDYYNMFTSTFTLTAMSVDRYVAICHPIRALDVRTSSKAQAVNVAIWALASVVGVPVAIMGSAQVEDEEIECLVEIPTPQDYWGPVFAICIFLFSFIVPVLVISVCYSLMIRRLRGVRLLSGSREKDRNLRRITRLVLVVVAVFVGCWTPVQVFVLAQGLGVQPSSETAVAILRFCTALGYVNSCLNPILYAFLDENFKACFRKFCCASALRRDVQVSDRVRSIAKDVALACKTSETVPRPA

mice = settings: mice, cited from earlier work
SERT = SERT (Homo sapiens, UniProt P31645); test: Radioligand displacement, SERT; assay type: binding
SERT, sequence (P31645 whole entry): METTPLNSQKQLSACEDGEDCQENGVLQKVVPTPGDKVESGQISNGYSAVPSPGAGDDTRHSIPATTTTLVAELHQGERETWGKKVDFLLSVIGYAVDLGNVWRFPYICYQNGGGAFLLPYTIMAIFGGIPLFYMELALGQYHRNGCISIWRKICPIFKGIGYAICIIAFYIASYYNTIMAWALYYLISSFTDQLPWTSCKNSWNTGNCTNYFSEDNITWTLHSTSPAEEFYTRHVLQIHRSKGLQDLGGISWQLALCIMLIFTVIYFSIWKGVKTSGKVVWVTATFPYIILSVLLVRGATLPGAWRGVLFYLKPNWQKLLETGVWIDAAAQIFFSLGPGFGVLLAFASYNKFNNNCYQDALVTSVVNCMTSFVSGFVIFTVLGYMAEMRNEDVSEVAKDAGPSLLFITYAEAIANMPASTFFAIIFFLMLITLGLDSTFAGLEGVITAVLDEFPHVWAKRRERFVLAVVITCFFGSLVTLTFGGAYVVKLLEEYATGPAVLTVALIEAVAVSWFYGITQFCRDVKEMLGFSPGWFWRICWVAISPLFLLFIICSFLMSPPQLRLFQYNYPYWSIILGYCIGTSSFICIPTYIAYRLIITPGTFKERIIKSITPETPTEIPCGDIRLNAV

GABAA = test: Radioligand displacement, GABAA; assay type: binding; settings: [3H] radioligand Muscimol; Rat, forebrain
β2 = β2 (Homo sapiens, UniProt P07550); test: Radioligand displacement, β2; assay type: binding
β2, sequence (P07550 whole entry): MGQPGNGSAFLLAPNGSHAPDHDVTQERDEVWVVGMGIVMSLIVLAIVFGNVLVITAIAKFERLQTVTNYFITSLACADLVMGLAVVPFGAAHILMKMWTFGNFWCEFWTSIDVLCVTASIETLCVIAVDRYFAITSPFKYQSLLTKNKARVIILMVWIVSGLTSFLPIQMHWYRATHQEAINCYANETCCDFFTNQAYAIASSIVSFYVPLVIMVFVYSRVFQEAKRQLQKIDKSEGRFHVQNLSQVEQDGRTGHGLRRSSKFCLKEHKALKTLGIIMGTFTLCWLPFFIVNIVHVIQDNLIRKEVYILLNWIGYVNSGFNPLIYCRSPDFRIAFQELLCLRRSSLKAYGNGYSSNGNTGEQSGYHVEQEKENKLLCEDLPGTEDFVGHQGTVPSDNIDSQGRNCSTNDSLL

β1 = β1 (Homo sapiens, UniProt P08588); test: Radioligand displacement, β1; assay type: binding
β1, sequence (P08588 whole entry): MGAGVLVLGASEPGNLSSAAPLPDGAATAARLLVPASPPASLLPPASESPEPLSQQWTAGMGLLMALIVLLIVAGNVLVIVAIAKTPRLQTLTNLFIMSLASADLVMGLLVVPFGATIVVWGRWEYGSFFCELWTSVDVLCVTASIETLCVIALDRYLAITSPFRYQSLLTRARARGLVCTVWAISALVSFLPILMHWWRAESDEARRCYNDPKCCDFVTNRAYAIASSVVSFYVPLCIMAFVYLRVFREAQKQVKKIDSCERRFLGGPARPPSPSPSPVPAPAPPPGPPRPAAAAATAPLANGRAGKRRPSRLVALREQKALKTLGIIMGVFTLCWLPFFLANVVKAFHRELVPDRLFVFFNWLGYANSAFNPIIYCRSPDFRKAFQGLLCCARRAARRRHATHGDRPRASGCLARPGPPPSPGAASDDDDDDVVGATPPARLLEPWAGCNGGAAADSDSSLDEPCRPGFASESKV

[1] = target: T3, α2C-adrenoceptor (α2C-AR) (Homo sapiens, UniProt P18825); test: Radioligand displacement, α2C
T3 sequence (P18825 1-462): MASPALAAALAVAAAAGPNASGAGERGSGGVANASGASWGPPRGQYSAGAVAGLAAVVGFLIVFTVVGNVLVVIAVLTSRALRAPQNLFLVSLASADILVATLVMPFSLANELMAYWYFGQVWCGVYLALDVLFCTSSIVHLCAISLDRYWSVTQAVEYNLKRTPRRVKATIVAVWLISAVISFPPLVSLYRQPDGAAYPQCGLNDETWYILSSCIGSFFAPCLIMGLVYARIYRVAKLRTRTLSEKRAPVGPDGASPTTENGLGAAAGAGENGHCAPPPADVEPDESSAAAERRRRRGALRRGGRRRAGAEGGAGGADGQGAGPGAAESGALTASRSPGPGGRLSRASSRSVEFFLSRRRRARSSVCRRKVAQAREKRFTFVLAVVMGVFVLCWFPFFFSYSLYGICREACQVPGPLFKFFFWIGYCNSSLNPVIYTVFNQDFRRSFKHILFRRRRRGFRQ

H3 = H3 (Cavia porcellus, UniProt Q9JI35); test: Radioligand displacement, H3; assay type: binding, Guinea Pig
H3, sequence (Q9JI35 whole entry): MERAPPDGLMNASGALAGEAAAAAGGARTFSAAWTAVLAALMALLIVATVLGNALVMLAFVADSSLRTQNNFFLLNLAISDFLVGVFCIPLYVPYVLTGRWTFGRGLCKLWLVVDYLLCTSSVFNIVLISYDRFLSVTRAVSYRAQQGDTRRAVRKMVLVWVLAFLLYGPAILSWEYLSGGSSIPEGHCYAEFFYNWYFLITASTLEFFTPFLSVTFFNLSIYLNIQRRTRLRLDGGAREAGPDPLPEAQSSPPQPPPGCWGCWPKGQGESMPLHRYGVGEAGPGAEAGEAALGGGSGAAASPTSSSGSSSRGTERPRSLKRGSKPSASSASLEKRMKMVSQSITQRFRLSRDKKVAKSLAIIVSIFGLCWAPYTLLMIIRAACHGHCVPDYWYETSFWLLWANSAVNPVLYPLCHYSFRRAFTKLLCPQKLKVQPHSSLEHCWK

D1 = D1 (Homo sapiens, UniProt P21728); test: Radioligand displacement, D1; assay type: binding
D1, sequence (P21728 whole entry): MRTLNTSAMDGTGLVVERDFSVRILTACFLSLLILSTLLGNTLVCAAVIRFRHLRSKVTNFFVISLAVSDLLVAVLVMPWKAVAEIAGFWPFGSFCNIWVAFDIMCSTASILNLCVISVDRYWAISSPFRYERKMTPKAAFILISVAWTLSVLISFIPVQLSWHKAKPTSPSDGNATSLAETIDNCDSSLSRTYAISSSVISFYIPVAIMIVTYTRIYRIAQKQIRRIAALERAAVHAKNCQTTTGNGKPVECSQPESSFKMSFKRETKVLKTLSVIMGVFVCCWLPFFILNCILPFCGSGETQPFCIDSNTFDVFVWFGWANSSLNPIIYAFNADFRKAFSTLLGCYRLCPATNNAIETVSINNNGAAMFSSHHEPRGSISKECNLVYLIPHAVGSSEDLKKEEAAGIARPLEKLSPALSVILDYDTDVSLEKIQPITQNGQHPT

DAT = DAT (Homo sapiens, UniProt Q01959); test: Radioligand displacement, DAT
DAT, sequence (Q01959 whole entry): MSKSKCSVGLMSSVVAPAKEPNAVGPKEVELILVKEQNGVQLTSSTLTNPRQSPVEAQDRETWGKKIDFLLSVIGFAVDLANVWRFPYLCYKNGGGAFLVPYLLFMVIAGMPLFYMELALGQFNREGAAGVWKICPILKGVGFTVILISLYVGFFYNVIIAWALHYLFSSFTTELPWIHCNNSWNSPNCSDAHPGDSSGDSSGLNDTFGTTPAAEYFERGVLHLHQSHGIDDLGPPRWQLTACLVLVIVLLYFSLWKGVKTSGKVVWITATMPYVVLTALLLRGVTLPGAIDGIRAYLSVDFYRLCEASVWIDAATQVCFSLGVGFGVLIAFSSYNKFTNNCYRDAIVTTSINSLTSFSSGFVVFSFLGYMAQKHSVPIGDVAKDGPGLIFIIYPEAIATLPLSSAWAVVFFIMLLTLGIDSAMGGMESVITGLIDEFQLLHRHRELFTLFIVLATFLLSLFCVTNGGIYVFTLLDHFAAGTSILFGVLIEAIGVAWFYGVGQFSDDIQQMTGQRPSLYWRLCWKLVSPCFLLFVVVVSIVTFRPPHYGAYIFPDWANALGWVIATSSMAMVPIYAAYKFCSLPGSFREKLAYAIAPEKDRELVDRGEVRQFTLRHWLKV

σ2 = target: T4, σ2 (Rattus norvegicus, UniProt Q5U3Y7); test: Radioligand displacement, σ2; assay type: binding
T4 sequence (Q5U3Y7 1-176): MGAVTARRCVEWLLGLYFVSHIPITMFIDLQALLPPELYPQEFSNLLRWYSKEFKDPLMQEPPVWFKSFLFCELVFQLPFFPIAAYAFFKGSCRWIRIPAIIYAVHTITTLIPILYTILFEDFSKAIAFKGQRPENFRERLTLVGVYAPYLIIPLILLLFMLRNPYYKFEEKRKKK

5-HT3 = target: T5, 5-HT3 (Homo sapiens, UniProt P46098); test: Radioligand displacement, 5-HT3; assay type: binding
T5 sequence (P46098 24-478): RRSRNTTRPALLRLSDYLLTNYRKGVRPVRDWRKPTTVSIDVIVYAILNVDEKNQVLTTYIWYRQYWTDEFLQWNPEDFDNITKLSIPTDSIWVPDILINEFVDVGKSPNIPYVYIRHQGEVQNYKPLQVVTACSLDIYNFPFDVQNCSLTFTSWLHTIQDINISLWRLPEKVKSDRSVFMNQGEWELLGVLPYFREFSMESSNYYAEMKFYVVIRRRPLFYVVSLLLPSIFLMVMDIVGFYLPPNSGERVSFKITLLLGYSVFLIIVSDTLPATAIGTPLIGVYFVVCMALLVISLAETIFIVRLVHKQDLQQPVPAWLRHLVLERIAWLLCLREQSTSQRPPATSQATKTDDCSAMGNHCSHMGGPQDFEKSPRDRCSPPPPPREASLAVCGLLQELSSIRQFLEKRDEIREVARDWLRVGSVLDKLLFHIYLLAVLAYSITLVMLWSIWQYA

H1 = H1 (Homo sapiens, UniProt P35367); test: Radioligand displacement, H1; assay type: binding
H1, sequence (P35367 whole entry): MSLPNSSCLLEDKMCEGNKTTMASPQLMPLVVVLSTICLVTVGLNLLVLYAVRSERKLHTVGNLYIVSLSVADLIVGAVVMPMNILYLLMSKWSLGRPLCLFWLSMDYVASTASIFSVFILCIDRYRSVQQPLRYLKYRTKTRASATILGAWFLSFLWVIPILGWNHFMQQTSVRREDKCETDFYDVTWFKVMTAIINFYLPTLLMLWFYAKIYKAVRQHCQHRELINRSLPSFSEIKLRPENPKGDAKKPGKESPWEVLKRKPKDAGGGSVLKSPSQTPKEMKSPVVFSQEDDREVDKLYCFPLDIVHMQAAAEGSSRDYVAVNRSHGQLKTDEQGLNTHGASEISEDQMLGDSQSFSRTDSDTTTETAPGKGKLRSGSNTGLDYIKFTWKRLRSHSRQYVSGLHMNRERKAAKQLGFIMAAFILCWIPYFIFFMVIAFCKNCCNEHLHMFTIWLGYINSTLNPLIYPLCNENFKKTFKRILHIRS

[2] = Ki, [3H] radioligand Prazosin, Human, Cloned
[3] = K i, α2C, radioligand displacement (Table 1)
[4] = Ki, [3H] radioligand Rauwolscine, Human, Cloned

| SMILES | Ki (α1B; [2]) [µM] | Ki (5-HT2b) [µM] | Ki (human NOP) [µM] | toxic signs (mice; 100 mg/kg) | Ki (SERT) [µM] | Ki (GABAA) [µM] | Ki (β2) [µM] | Ki (β1) [µM] | Ki [1, 3] [µM] | Ki [1, 4] [µM] | Ki (H3) [µM] | Ki (D1) [µM] | Ki (DAT) [µM] | Ki (σ2) [µM] | Ki (5-HT3) [µM] | Ki (H1) [µM] | further results |
| --- | --- | --- | --- | --- | --- | --- | --- | --- | --- | --- | --- | --- | --- | --- | --- | --- | --- |
| Oc1ccc2c3c1O[C@H]1c4[nH]c5c(c4C[C@@]4(O)[C@@H](C2)N(CC2CC2)CC[C@]314)C[C@@]1(O)[C@H]2Cc3ccc(O)c4c3[C@@]1(CCN2CC1CC1)[C@H]5O4 [nor-BNI, Nor-binaltorphimine] | ≥ 10 | ≥ 10 | 4.4 | no convulsions or deaths | ≥ 10 | ≥ 10 | ≥ 10 | ≥ 10 | 0.63 | 0.626 | ≥ 10 | ≥ 10 | ≥ 10 | ≥ 10 | ≥ 10 | ≥ 10 | – |
| N=C(N)Nc1ccc2[nH]c3c(c2c1)C[C@@]1(O)[C@H]2Cc4ccc(O)c5c4[C@@]1(CCN2CC1CC1)[C@H]3O5 [GNTI, 5′-guanidinonaltrindole] | 8.9 | ≥ 10 | 2.5 | – | ≥ 10 | ≥ 10 | ≥ 10 | ≥ 10 | 2.2 | 2.23 | ≥ 10 | ≥ 10 | ≥ 10 | ≥ 10 | ≥ 10 | ≥ 10 | Ki (α1B; Ki, binding curve File S1 (GNTI page), Alpha1B Receptor, [125I]HEAT (0.05 nM)): 8.91 µM; time to ataxia, convulsions and death (mice; 30 mg/kg i.p.): ≤ 18 min; toxic signs (mice; 30 mg/kg i.p.): ataxia, convulsions and death; Ki ([1]; Ki, binding curve File S1, Alpha2C Receptor, [125I]Clonidine (0.12 nM), Alpha2 Binding Buffer): 2.23 µM |
| CC(C)[C@@H](CN1CC[C@@](C)(c2cccc(O)c2)[C@@H](C)C1)NC(=O)[C@H]1Cc2ccc(O)cc2CN1 [JDTic] | – | – | – | no convulsions or deaths | – | ≥ 10 | – | – | – | – | – | – | – | – | – | – | Ki (α1B; [3H] radioligand Prazosin, Human, Cloned, read-out: Ki): 4.81 µM; Ki (α1B; binding curve File S1 (JDTic page), Alpha1B Receptor, [125I]HEAT (0.12 nM), read-out: Ki): 4.81 µM; Ki (α1B; α1B, radioligand displacement (Table 1), read-out: K i): 4.8 µM; Ki (5-HT2b; [3H] radioligand LSD, Human, Cloned, read-out: Ki): ≥ 10 µM; Ki (human NOP; NOP, displacing [3H]N/OFQ (Table 1), read-out: K i): 0.012 µM; Ki (SERT; [3H] radioligand Citalopram, Human, Cloned, read-out: Ki): ≥ 10 µM; Ki (β2; [3H] radioligand CGP12177, Human, Cloned, read-out: Ki): ≥ 10 µM; Ki (β1; [3H] radioligand CGP12177, Human, Heart, read-out: Ki): ≥ 10 µM; Ki [1]: ≥ 10 µM; Ki (H3; [3H] radioligand α-methylhistamine, Guinea Pig, Cloned, read-out: Ki): ≥ 10 µM; Ki (D1; [3H] radioligand SCH23390, Human, Cloned, read-out: Ki): ≥ 10 µM; Ki (DAT; K i, DAT, radioligand displacement (Table 1)): 4.4 µM; Ki (DAT; Ki, [3H] radioligand WIN35428, Human, Cloned): 4.37 µM; Ki (DAT; Ki, binding curve File S1, Dopamine Transporter, [3H]WIN35428 (3 nM), Transporter Binding Buffer): 4.37 µM; Ki (σ2; [3H] radioligand DTG, Rat, PC12, read-out: Ki): ≥ 10 µM; Ki (5-HT3; [3H] radioligand LY278584, Human, Cloned, read-out: Ki): ≥ 10 µM; Ki (H1; [3H] radioligand Pyrilamine, Human, Cloned, read-out: Ki): ≥ 10 µM |
